Experimental data: patent US20220306606A1, “MODULATOR OF CYSTIC FIBROSIS TRANSMEMBRANE CONDUCTANCE REGULATOR, PHARMACEUTICAL COMPOSITIONS, METHODS OF TREATMENT, AND PROCESS FOR MAKING THE MODULATOR” (Vertex Pharmaceuticals Incorporated, priority 2016, published 2022)
Entries after “also recorded” stand apart in the source; their conditions may differ. Where two headings read alike, the source gives them in different places. Values belong to the molecule of their own block, whether it stands above or below them.

Key:
Rat IV and PO PK studies = format: in vivo; conditions: male Sprague-Dawley rats, oral 3 mg/kg
Experimental: 5C. Experimental Protocol for Rat IV and PO PK Studies
The tested compound was administered to male Sprague-Dawley rats as a single nominal intravenous dose of 3.0 mg/kg as a solution in 10% NMP, 10% solutol, 15% EtOH, 35% PEG400 and 30% D5W. The tested compound was also administered to male Sprague-Dawley rats at single nominal oral dose of 3 mg/kg as a solution in 5% NMP, 30% PEG400, 10% TPGS, 5% PVP-K30 at 5 mL/kg dose volume. Analyses of plasma and dose preparations were performed using LC/MS/MS.
Plasma concentration-time profiles of the tested compound in Sprague-Dawley rats at scheduled (nominal) sampling times were analyzed by noncompartmental pharmacokinetic methods using PK function within Watson LIMS software, Version 7.4.2 (Thermo Scientific Inc, Waltham, Mass.). AUC values were calculated using the linear trapezoidal rule.

F508del-CFTR [1] = molecular target: T1, F508del-CFTR (Homo sapiens, UniProt P13569, DEL508-508); assay: Membrane potential optical (FLIPR) assay for F508del-CFTR modulators; format: cell-based; parameters: expressed in transfected cells; conditions: read-out: CFTRdF508 EC50
T1 sequence (P13569 with tags, fused parts or gaps DEL508-508): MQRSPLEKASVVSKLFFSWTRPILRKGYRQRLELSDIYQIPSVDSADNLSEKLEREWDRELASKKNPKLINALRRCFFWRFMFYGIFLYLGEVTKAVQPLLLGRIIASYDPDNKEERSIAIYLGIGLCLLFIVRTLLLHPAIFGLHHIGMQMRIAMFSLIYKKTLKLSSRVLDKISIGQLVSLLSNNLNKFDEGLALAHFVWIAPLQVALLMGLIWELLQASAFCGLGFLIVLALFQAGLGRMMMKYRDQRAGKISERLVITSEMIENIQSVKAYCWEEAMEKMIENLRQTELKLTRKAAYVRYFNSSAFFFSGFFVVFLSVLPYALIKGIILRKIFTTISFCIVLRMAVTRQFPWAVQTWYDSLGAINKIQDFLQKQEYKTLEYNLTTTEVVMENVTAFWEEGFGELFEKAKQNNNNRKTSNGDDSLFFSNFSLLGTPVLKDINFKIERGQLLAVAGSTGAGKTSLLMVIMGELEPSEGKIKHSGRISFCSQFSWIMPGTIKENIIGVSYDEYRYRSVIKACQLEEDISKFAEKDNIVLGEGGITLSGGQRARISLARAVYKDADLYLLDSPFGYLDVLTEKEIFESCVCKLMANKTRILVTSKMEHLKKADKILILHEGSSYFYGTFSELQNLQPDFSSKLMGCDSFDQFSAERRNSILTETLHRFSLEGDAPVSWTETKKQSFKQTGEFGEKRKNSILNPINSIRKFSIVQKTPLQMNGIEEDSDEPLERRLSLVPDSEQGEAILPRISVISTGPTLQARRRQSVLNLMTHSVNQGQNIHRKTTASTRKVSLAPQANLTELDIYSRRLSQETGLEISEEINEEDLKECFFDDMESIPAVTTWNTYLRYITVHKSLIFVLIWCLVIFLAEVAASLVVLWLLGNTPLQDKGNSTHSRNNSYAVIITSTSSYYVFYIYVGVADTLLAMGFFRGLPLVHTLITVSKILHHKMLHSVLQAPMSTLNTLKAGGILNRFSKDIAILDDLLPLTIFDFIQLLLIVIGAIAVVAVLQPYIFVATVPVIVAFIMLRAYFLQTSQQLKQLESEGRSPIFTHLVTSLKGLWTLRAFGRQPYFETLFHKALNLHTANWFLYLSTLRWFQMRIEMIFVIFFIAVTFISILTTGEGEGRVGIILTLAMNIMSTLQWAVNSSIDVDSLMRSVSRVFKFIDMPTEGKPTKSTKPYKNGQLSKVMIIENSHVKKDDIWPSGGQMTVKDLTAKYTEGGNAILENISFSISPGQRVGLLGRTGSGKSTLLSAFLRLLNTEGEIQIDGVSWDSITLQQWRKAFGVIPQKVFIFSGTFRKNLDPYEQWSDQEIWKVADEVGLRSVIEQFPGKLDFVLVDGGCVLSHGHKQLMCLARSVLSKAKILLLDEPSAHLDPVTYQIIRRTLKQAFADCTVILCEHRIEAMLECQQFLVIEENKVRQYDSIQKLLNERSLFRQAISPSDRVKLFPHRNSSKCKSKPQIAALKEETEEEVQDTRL
Description: Membrane Potential Optical Methods for Assaying Properties of F508del-CFIR Modulators
The assay utilizes fluorescent voltage sensing dyes to measure changes in membrane potential using a fluorescent plate reader (e.g., FLIPR III, Molecular Devices, Inc.) as a readout for increase in functional F508del in NIH 3T3 cells.
5A-A1. Identification of F508del-CTTR Modulators
To identify modulators of F508del, a fluorescence based HTS assay format was developed. This HTS assay utilizes fluorescent voltage sensing dyes to measure changes in membrane potential on the FLIPR III as a measurement for increase in gating (conductance) of F508del NIH 3T3 cells.
Bath Solution #1: (in mM) NaCl 160, KCl 4.5, CaCl2 2, MgCl2 1, HEPES 10, pH 7.4 with NaOH, Glucose 10.
Chloride-free bath solution: Chloride salts in Bath Solution #1 (above) are substituted with gluconate salts.
NIH3T3 mouse fibroblasts stably expressing F508del are used for optical measurements of membrane potential. The cells are maintained at 37° C. in 5% CO2 and 90% humidity in Dulbecco's modified Eagle's medium supplemented with 2 mM glutamine, 10% fetal bovine serum, 1×NEAR, β-ME, 1×pen/strep, and 25 mM HEPES in 175 cm^2 culture flasks, For all optical assays, the cells were seeded at 12,000 cells/well in 384-well matrigel-coated plates and cultured for 18-24 hrs at 37° C. for the potentiator assay. For the correction assays, the cells are cultured at 37° C. with and without compounds for 18-24 hours.

F508del-CFTR [2] = molecular target: T1, F508del-CFTR; assay: Ussing chamber chloride transport in HBE cells; format: cell-based; parameters: CF-HBE were isolated from patients homozygous for F508del; endogenous in cells; host or cells: primary human bronchial epithelial (HBE) cells, F508del/F508del
Experimental: Ussing chamber experiments were performed on polarized airway epithelial cells expressing F508del to further characterize the F508del modulators identified in the optical assays. Non-CF and CF airway epithelia were isolated from bronchial tissue, cultured as previously described (Galietta, L. J. V., Lantero, S., Gazzolo, A., Sacco, O., Romano, L., Rossi, G. A., & Zegarra-Moran, O. (1998) In Vitro Cell Dev. Biol. 34, 478-481), and plated onto Costar® Snapwell™ filters that were precoated with NIH3T3-conditioned media. After four days the apical media was removed and the cells were grown at an air liquid interface for >14 days prior to use.
HBE grown on Costar® Snnapwell™ cell culture inserts were mounted in an Ussing chamber (Physiologic Instruments, Inc., San Diego, Calif.), and the transepithelial resistance and short-circuit current in the presence of a basolateral to apical […] gradient (ISC) were measured using a voltage-clamp system (Department of Bioengineering, University of Iowa, Iowa). Briefly, HBE were examined under voltage-clamp recording conditions (Vhold=0 mV) at 37° C. The basolateral solution contained (in mM) 145 NaCl, 0.83 K2HPO4, 3.3 KH2PO4, 1.2 MgCl2, 1.2 CaCl2, 10 Glucose, 10 HEPES (pH adjusted to 7.35 with NaOH) and the apical solution contained (in mM) 145 NaGluconate, 1.2 MgCl2, 1.2 CaCl2, 10 glucose, 10 HEPES (pH adjusted to 7.35 with NaOH).
5A-A2. […]

[3] = molecular target: T2, Human Serum Albumin (HSA) (Homo sapiens, UniProt P02768); assay: Chromatographic determination of Human Serum Albumin (HSA) binding; format: in vitro ADME; conditions: ChiralPak HSA column retention time converted to % HSA
T2 construct: purchased Sigma Aldrich 58469AST
T2 sequence (P02768 25-609): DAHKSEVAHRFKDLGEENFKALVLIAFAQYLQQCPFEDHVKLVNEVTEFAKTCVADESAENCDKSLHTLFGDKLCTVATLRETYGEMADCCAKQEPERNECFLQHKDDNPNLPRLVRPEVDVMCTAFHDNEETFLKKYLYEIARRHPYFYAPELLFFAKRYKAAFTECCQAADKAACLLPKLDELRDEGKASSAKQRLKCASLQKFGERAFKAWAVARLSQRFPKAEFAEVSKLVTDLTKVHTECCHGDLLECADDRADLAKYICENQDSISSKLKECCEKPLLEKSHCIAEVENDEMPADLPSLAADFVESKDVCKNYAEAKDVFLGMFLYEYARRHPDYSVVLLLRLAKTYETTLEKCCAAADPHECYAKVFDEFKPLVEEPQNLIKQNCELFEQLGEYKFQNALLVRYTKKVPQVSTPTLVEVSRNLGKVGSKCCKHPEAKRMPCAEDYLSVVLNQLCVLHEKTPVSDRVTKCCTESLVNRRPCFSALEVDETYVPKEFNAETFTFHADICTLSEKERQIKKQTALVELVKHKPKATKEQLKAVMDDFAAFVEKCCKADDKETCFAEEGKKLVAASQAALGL
Experimental: 5B. Chromatographic Determination of Human Serum Albumin (HSA) Assay
Chromatographic determination of Human Serum Albumin (HSA) values was performed on a UPLC-MS system using a ChiralPak® HSA column (p/n: 58469AST) from Sigma Aldrich. Mobile phase A consisted of 50 mM ammonium acetate buffer in water adjusted to pH=7.4, and mobile phase B was 2-propanol. The column compartment was kept at constant temperature of 30° C. Determination of retention time on the HSA column was performed by injecting […] of 0.5 mM of compound (in DMSO) using a linear gradient from 0%-30% B in 2.5 minutes, followed by a hold at 30%B for 2 minutes, and the final equilibration step from 30%-0% B in 1.5 minutes, for a total run time of 6 minutes. Flow rate was kept constant throughout the gradient and set to 1.8 mL/min. Compound retention time on the HSA column was converted to % HSA values according to a previously published protocol (Valko, et. al, 2003) correlating column retention times to standard plasma protein binding (PPB) values obtained from dialysis experiments. HSA data for certain compounds are summarized below in Table 8 below.
Valko, K., Nunhuck, S., Bevan, C., Abraham, M. H., Reynolds, D. P. Fast Gradient HPLC Method to Determine Compounds Binding to Human Serwn Albumin. Relationships with Octanol/Water and. Immobilized Artificial Membrane Lipophilicity. J. of Pharm. Sci. 2003, 92, 2236-2248.

F508del-CFTR [4] = molecular target: T1, F508del-CFTR; assay: F508del-CFTR processing and trafficking in vitro (170 to 180 kDa band); format: cell-based; parameters: CF-HBE were isolated from patients homozygous for F508del; endogenous in cells; host or cells: primary human bronchial epithelial (HBE) cells, F508del/F508del
Experimental: The CFTR protein delivered to the cell surface by Compound 1 alone or in combination with Compound II (Compound 1/Compound II) was potentiated by Compound III.
Incubation of F508del/F508del-HBE cells for 16 to 24 hours with 1 μM Compound 1 alone or in combination with […].

[5] = Table 6, F508del NIH 3T3 cells, assay of Example 5A-A1

Rat po % F (Rat IV and PO PK studies): 28%
SMILES: C[C@@H]1CN(c2nc(-n3ccc(OCC(C)(C)C)n3)ccc2C(=O)NS(=O)(=O)c2cccnc2N)C(C)(C)C1 [Comp. A, reference compound]

EC50 (F508del-CFTR [1]; Table 7, Compound 1 and its metabolites): > 30000 nM
SMILES: CC1CC(C)(C)N2c3nc(-n4ccc(OCCC5(C(F)(F)F)CC5)n4)ccc3C(=O)OC12 (stereo not shown)

Rat po % F (Rat IV and PO PK studies): 50%
SMILES: C[C@@H]1CN(c2nc(-n3ccc(OCCC4(C(F)(F)F)CC4)n3)ccc2C(=O)NS(=O)(=O)c2cccc(F)c2)C(C)(C)C1 [Compound 5]

potentiation of F508del-CFTR delivered to the cell surface (F508del-CFTR [2]; CFTR delivered by Compound 1 alone or in combination with Compound II): potentiated
SMILES: CC(C)(C)c1cc(C(C)(C)C)c(NC(=O)c2c[nH]c3ccccc3c2=O)cc1O [Compound III, N-(5-hydroxy-2,4-di-tert-butyl-phenyl)-4-oxo-1H-quinoline-3-carboxamide, reference compound]

EC50 (F508del-CFTR [1]; [5]): 100 to 1000 nM
SMILES: C[C@@H]1CN(c2nc(-n3ccc(OCC4(C(F)(F)F)CC4)n3)ccc2C(=O)NS(=O)(=O)c2ccc(F)cc2)C(C)(C)C1 [Compound 52, N-(4-fluorophenyl)sulfonyl-6-[3-[[1-(trifluoromethyl)cyclopropyl]methoxy]pyrazol-1-yl]-2-[(4S)-2,2,4-trimethylpyrrolidin-1-yl]pyridine-3-carboxamide]

EC50 (F508del-CFTR [1]; [5]): < 100 nM
SMILES: C[C@@H]1CN(c2nc(-n3ccc(OCC4(C(F)(F)F)CC4)n3)ccc2C(=O)NS(=O)(=O)c2ccccc2C#N)C(C)(C)C1 [Compound 26, N-(2-Cyanophenyl)sulfonyl-6-[3-[[1-(trifluoromethyl)cyclopropyl]methoxy]pyrazol-1-yl]-2-[(4S)-2,2,4-trimethylpyrrolidin-1-yl]pyridine-3-carboxamide]

Rat po % F (Rat IV and PO PK studies): 41%
SMILES: C[C@@H]1CN(c2nc(-n3ccc(OCC4(C(F)(F)F)CCC4)n3)ccc2C(=O)NS(=O)(=O)c2ccccc2)C(C)(C)C1 [Compound 10, N-(Benzenesulfonyl)-6-[3-[[1-(trifluoromethyl)cyclobutyl]methoxy]pyrazol-1-yl]-2-[(4S)-2,2,4-trimethylpyrrolidin-1-yl]pyridine-3-carboxamide]

Rat po % F (Rat IV and PO PK studies): 58%
SMILES: C[C@@H]1CN(c2nc(-n3ccc(OCC4(C(F)(F)F)CC4)n3)ccc2C(=O)NS(=O)(=O)c2ccccc2)C(C)(C)C1 [Compound 14, N-(Benzeuesulfonyl)-6-[3-[[1-(trifluoromethyl)cyclopropyl]methoxy]pyrazol-1-yl]-2-[(4S)-2,2,4-trimethylpyrrolidin-1-yl]pyridine-3-carboxamide]

HSA binding [3]: 98.%
SMILES: C[C@@H]1CN(c2nc(-n3ccc(OCC4(C(F)(F)F)CC4)n3)ccc2C(=O)NS(=N)(=O)c2ccccc2)C(C)(C)C1 (mixture of isomers)

Rat po % F (Rat IV and PO PK studies): 63%
steady-state levels, fold of untreated levels (F508del-CFTR [4]; F508del/F508del-HBE cells, 16 to 24 hours, 1 μM Compound 1 alone): 6.5 fold
processing and trafficking of F508del-CFTR (F508del-CFTR [4]; in vitro): CFTR corrector
SMILES: C[C@@H]1CN(c2nc(-n3ccc(OCCC4(C(F)(F)F)CC4)n3)ccc2C(=O)NS(=O)(=O)c2ccccc2)C(C)(C)C1 [Compound 1, N-(benzenesulfonyl)-6-[3-[2-[1-(trifluoromethyl)cyclopropyl]ethoxy]pyrazol-1-yl]-2-[(4S)-2,2,4-trimethylpyrrolidin-1-yl]pyridine-3-carboxamide]
chloride transport (F508del-CFTR [2]; Ussing Chamber, F508del/F508del-HBE cells, listed as Compound I): enhanced chloride transport; also recorded: additive to the effect of Compound II
